# Laboratory results from patent US20240180900A1, “COMPOUNDS AND METHODS FOR THE TARGETED DEGRADATION OF ANDROGEN RECEPTOR” (Arvinas Operations, Inc., priority 2022, published 2024).
# Where two headings read alike, the source gives them in different places.
# Key:
# PSA = test: Phase 1/2 trial in mCRPC: PSA response; type: in vivo, human
# Experimental: Evaluable analysis set include all Compound A treated participants with baseline PSA assessment and at least a C1D28 or later postbaseline PSA assessment. A PSA90 and PSA50 and PSA30 response is defined as a =90% or 50% or 30% decline in PSA from baseline PSA value, respectively.
# Patients in the Phase 1 studies were administered from 40 mg to 500 mg Compound A once daily. Patients in the Phase 2 studies were administered 100 mg or 300 mg Compound A once daily.
# In the Phase 1 and interim Phase 2 trial, AR LBD mutations were present in 28% (13 of 47) of patients' tumors. […] (FIG. 7; AR: androgen receptor; LBD: ligand-binding domain; PSA: prostate-specific antigen; PSA30: best PSA declines ≥30%; PSA50: best PSA declines ≥50%; H875: H875Y; T878: T878A or T878S.)
# Evaluable analysis set include all Compound A treated participants with baseline PSA assessment and at least a C1D28 or later postbaseline PSA assessment. A PSA90 and PSA50 and PSA30 response is defined as =90% or 50% or 30% decline in PSA from baseline PSA value.
# [1] = preliminary PK in mCRPC participants (Phase 1/2); type: in vivo, human
# Experimental: A chiral bioanalytical method by LC-MS/MS has been developed to characterize the PK of Compound A. Pharmacokinetic analyses were performed using noncompartmental analysis methods.
# Mean steady state peak/trough ratio is less than 2, which indicates minimal fluctuation in plasma concentrations once steady state is achieved. Steady state occurs within 3 weeks into treatment.
# An ongoing, open-label, Phase 1/2 study in male participants with mCRPC. The Phase 1 dose escalation investigated Compound A doses of 20 mg, 40 mg, 80 mg, 100 mg, 160 mg, 200 mg, 320 mg, 400 mg, 480 mg, and 500 mg administered QD. […] Doses of 100 mg QD and 300 mg QD were selected for the Phase 2 cohort expansion.
# AR T878S = target: T1, AR T878S (Homo sapiens, UniProt P10275, T878S); test: AR degradation in T-Rex-293 cell line, T878S; type: cell-based; conditions: T-Rex-293, ELISA
# T1 construct: expressed in transfected cells; host or cells: T-REx-293
# T1 sequence (P10275 whole entry T878S): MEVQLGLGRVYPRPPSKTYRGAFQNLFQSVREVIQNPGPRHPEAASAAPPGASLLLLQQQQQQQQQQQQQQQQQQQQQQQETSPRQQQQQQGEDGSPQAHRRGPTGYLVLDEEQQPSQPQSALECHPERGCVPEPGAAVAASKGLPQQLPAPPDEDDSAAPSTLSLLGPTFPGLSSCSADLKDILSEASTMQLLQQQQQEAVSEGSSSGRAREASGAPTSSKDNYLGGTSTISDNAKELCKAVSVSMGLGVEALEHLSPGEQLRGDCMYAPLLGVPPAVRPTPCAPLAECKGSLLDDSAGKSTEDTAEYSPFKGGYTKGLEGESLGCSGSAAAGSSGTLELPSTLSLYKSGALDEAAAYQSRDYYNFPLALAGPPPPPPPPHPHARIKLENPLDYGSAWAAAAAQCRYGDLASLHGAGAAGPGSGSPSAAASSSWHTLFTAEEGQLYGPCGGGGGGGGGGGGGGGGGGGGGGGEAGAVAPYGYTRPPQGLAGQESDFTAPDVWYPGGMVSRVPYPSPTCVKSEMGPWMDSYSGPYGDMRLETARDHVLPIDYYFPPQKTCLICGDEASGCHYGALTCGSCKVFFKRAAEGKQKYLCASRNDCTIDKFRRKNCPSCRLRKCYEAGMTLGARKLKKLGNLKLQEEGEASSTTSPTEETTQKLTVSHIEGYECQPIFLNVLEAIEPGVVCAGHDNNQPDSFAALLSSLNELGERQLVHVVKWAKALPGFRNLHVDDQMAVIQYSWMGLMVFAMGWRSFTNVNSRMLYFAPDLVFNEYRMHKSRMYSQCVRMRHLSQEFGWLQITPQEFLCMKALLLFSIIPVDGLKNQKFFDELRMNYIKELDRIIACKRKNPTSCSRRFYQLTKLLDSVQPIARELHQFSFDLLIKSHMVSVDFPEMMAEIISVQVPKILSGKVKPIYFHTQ
# Text: FIG. 3 is a graph showing Compound A's ability to degrade clinically relevant mutated forms AR.
# To assess the ability of Compound A to degrade variants of the AR, vectors expressing wild-type AR or mutant AR proteins harboring clinically observed mutations in the ligand binding domain (13 with single amino acid changes or 4 with 2 amino acid changes) (Azad A. A., Volik S. V., Wyatt A. W., et al. Androgen receptor gene aberrations in circulating cell-free DNA: biomarkers of therapeutic resistance in castration-resistant prostate cancer. Clin Cancer Res. 2015; 21:2315-2324; Robinson D., Van Allen E. M., Wu Y. M., et al. Integrative clinical genomics of advanced prostate cancer. Cell. 2015; 161:1215-1228; Ledet E. M., Lilly M. B., Sonpavde G., et al. Comprehensive analysis of AR alterations in circulating tumor DNA from patients with advanced prostate cancer. Oncologist.
compound,measurement,setting,value
"COc1cc(O[C@H]2C(C)(C)[C@H](NC(=O)c3ccc(N4CCC(CN5CCN(c6ccc(C(=O)N[C@H]7CCC(=O)NC7=O)c(F)c6)CC5)CC4)cc3)C2(C)C)ccc1C#N [Compound A, 4-(4-((1-(4-(((1R,3R)-3-(4-cyano-3-methoxyphenoxy)-2,2,4,4-tetramethylcyclobutyl)carbamoyl)phenyl)piperidin-4-yl)methyl)piperazin-1-yl)-N—((S)-2,6-dioxopiperidin-3-yl)-2-fluorobenzamide]",PSA decline in patient with mCRPC with wild-type AR,PSA; FIG. 14,Deep PSA decline
same,patients with AR LBD mutations achieving PSA50,PSA; Phase 1 and interim Phase 2,42%
same,patients with AR LBD mutations achieving PSA50,"PSA; as the trial progressed, 7 of 17",41%
same,Mean steady state peak/trough ratio,[1]; QD dosing,less than 2
same,time to steady state,[1]; QD dosing,≤ 3 weeks
same,AUC(0-t),"[1]; human, plasma, oral, 20 mg, 20 mg QD, individual value (n = 1), read-out: AUC0-24 Day 1",178 ng·h/mL
same,AUC(0-t),"[1]; human, plasma, oral, 20 mg, 20 mg QD, individual value (n = 1), read-out: AUC0-24 Day 21",997 ng·h/mL
same,Cmax,"[1]; human, plasma, oral, 20 mg, 20 mg QD, individual value (n = 1), read-out: Cmax Day 1",11.1 ng/mL
same,Cmax,"[1]; human, plasma, oral, 20 mg, 20 mg QD, individual value (n = 1), read-out: Cmax Day 21",44.1 ng/mL
same,AUC(0-t),"[1]; human, plasma, oral, 40 mg, 40 mg QD, individual value (n = 1), read-out: AUC0-24 Day 1",314 ng·h/mL
same,AUC(0-t),"[1]; human, plasma, oral, 40 mg, 40 mg QD, individual value (n = 1), read-out: AUC0-24 Day 21",1300 ng·h/mL
same,Cmax,"[1]; human, plasma, oral, 40 mg, 40 mg QD, individual value (n = 1), read-out: Cmax Day 1",19.1 ng/mL
same,Cmax,"[1]; human, plasma, oral, 40 mg, 40 mg QD, individual value (n = 1), read-out: Cmax Day 21",60.3 ng/mL
same,AUC(0-t),"[1]; human, plasma, oral, 80 mg, 80 mg QD, individual value (n = 1), read-out: AUC0-24 Day 1",432 ng·h/mL
same,AUC(0-t),"[1]; human, plasma, oral, 80 mg, 80 mg QD, individual value (n = 1), read-out: AUC0-24 Day 21",3110 ng·h/mL
same,Cmax,"[1]; human, plasma, oral, 80 mg, 80 mg QD, individual value (n = 1), read-out: Cmax Day 1",22.2 ng/mL
same,Cmax,"[1]; human, plasma, oral, 80 mg, 80 mg QD, individual value (n = 1), read-out: Cmax Day 21",139 ng/mL
same,AUC(0-t),"[1]; male, human, plasma, oral, 100 mg, 100 mg QD (N=6), Cycle 1 Day 21, read-out: mean steady-state AUC0-24",4610 ng·h/mL
same,AUC(0-t),"[1]; male, human, plasma, oral, 100 mg, 100 mg QD, Mean (CV %), read-out: AUC0-24 Day 1",816 ng·h/mL
same,AUC(0-t),"[1]; male, human, plasma, oral, 100 mg, 100 mg QD, Mean (CV %), read-out: AUC0-24 Day 21",4610 ng·h/mL
same,Cmax,"[1]; male, human, plasma, oral, 100 mg, 100 mg QD, Mean (CV %), read-out: Cmax Day 1",45.1 ng/mL
same,Cmax,"[1]; male, human, plasma, oral, 100 mg, 100 mg QD, Mean (CV %), read-out: Cmax Day 21",233 ng/mL
same,AUC(0-t),"[1]; male, human, plasma, oral, 160 mg, 160 mg QD, Mean (CV %), read-out: AUC0-24 Day 1",2050 ng·h/mL
same,AUC(0-t),"[1]; male, human, plasma, oral, 160 mg, 160 mg QD, Mean (CV %), read-out: AUC0-24 Day 21",8450 ng·h/mL
same,Cmax,"[1]; male, human, plasma, oral, 160 mg, 160 mg QD, Mean (CV %), read-out: Cmax Day 1",125 ng/mL
same,Cmax,"[1]; male, human, plasma, oral, 160 mg, 160 mg QD, Mean (CV %), read-out: Cmax Day 21",445 ng/mL
same,AUC(0-t),"[1]; male, human, plasma, oral, 200 mg, 200 mg QD, Mean (CV %), read-out: AUC0-24 Day 1",1830 ng·h/mL
same,AUC(0-t),"[1]; male, human, plasma, oral, 200 mg, 200 mg QD, Mean (CV %), read-out: AUC0-24 Day 21",11500 ng·h/mL
same,Cmax,"[1]; male, human, plasma, oral, 200 mg, 200 mg QD, Mean (CV %), read-out: Cmax Day 1",110 ng/mL
same,Cmax,"[1]; male, human, plasma, oral, 200 mg, 200 mg QD, Mean (CV %), read-out: Cmax Day 21",559 ng/mL
same,AUC(0-t),"[1]; male, human, plasma, oral, 300 mg, 300 mg QD, Mean (CV %), read-out: AUC0-24 Day 1",2220 ng·h/mL
same,AUC(0-t),"[1]; male, human, plasma, oral, 300 mg, 300 mg QD, Mean (CV %), read-out: AUC0-24 Day 21",14900 ng·h/mL
same,Cmax,"[1]; male, human, plasma, oral, 300 mg, 300 mg QD, Mean (CV %), read-out: Cmax Day 1",119 ng/mL
same,Cmax,"[1]; male, human, plasma, oral, 300 mg, 300 mg QD, Mean (CV %), read-out: Cmax Day 21",672 ng/mL
same,AUC(0-t),"[1]; male, human, plasma, oral, 320 mg, 320 mg QD, Mean (CV %), read-out: AUC0-24 Day 1",3990 ng·h/mL
same,AUC(0-t),"[1]; male, human, plasma, oral, 320 mg, 320 mg QD, Mean (CV %), read-out: AUC0-24 Day 21",23100 ng·h/mL
same,Cmax,"[1]; male, human, plasma, oral, 320 mg, 320 mg QD, Mean (CV %), read-out: Cmax Day 1",223 ng/mL
same,Cmax,"[1]; male, human, plasma, oral, 320 mg, 320 mg QD, Mean (CV %), read-out: Cmax Day 21",1070 ng/mL
same,AUC(0-t),"[1]; male, human, plasma, oral, 400 mg, 400 mg QD, Mean (CV %), read-out: AUC0-24 Day 1",3350 ng·h/mL
same,AUC(0-t),"[1]; male, human, plasma, oral, 400 mg, 400 mg QD, Mean (CV %), read-out: AUC0-24 Day 21",11900 ng·h/mL
same,Cmax,"[1]; male, human, plasma, oral, 400 mg, 400 mg QD, Mean (CV %), read-out: Cmax Day 1",232 ng/mL
same,Cmax,"[1]; male, human, plasma, oral, 400 mg, 400 mg QD, Mean (CV %), read-out: Cmax Day 21",526 ng/mL
same,AUC(0-t),"[1]; male, human, plasma, oral, 480 mg, 480 mg QD, Mean (CV %), read-out: AUC0-24 Day 1",2540 ng·h/mL
same,AUC(0-t),"[1]; male, human, plasma, oral, 480 mg, 480 mg QD, Mean (CV %), read-out: AUC0-24 Day 21",12900 ng·h/mL
same,Cmax,"[1]; male, human, plasma, oral, 480 mg, 480 mg QD, Mean (CV %), read-out: Cmax Day 1",145 ng/mL
same,Cmax,"[1]; male, human, plasma, oral, 480 mg, 480 mg QD, Mean (CV %), read-out: Cmax Day 21",644 ng/mL
same,AUC(0-t),"[1]; male, human, plasma, oral, 500 mg, 500 mg QD, Mean (CV %), read-out: AUC0-24 Day 1",3590 ng·h/mL
same,AUC(0-t),"[1]; male, human, plasma, oral, 500 mg, 500 mg QD, Mean (CV %), read-out: AUC0-24 Day 21",15000 ng·h/mL
same,Cmax,"[1]; male, human, plasma, oral, 500 mg, 500 mg QD, Mean (CV %), read-out: Cmax Day 1",203 ng/mL
same,Cmax,"[1]; male, human, plasma, oral, 500 mg, 500 mg QD, Mean (CV %), read-out: Cmax Day 21",703 ng/mL
same,half-life,"[1]; male, human, plasma, oral, QD dosing, mCRPC participants, read-out: effective mean T1/2",83 to 111 h
same,Tmax,"[1]; male, human, plasma, oral administration, mCRPC participants, read-out: median Tmax",~8 h
same,DC50,AR T878S,900 pM
